# Assay results: publication PMC3720542, “Population pharmacokinetics of mefloquine, piperaquine and artemether-lumefantrine in Cambodian and Tanzanian malaria patients” (Malaria Journal, 2013)
# Like-named read-outs stand apart in the source and are kept apart here. Marks after values point to notes of the source that are not given here.
# Assays:
# [1] = Population pharmacokinetic analysis (NONMEM) of artemether-lumefantrine and metabolites in Tanzanian malaria patients (Kibaoni); assay type: in vivo, human; details: for clearance / Vd: human, plasma, oral; for Vd: read-out: VSS (steady-state volume of distribution), population estimate for a person of 70 kg
# Description: Three studies have been conducted, one in Tanzania and two in Cambodia. The study profiles are described in Figure 1. The first study was performed during March to May 2008 at the Kibaoni Health Centre, Kilombero district, Morogoro region, Tanzania. […] Six AM-LF (Coartem®, Novartis Pharma, Switzerland) doses were administered at time 0, 8, […] according to body weight (see Table 1); patients were either admitted for three days or asked to come back to the health facility for each drug administration. Mothers of breastfed patients were encouraged to feed their children and patients admitted were provided with food. Patients who reported that they have not eaten within two hours to prior dose intake were instructed to eat as soon as possible. Patients were seen by the clinical officer on days 0, 1, 2, 3, 7, 14, 28, and 42. A blood sample for pharmacokinetic measurement was taken at baseline (pre-dose on day 0) and on days 1, 2, and 7 at pre-defined random times after the last dosing. At each visit, a filter paper sample and a thin and thick smear were taken, in addition to axillary temperature, respiratory rate and haemoglobin measurements (only on days 0, 28 and 42) as well as evaluation of symptoms (e.g. headache, vomiting, and diarrhea). The exact dose and time of last drug intake, body weight, height, age, sex, food intake and concomitant medications were carefully recorded. If patients suffered from concomitant illnesses they were provided with additional treatment (paracetamol, mebendazole, metronidazole, cloxacillin, amoxicillin). Samples of 2 ml of venous blood were collected on an EDTA Vacutainer and kept on ice for no longer than 6 h after withdrawal and then aliquoted into whole blood, plasma and pellet and immediately stored in liquid nitrogen or a -80°C freezer. […] The laboratory is part of the quality control system of the World-Wide Antimalarial Resistance Network (WWARN). The pharmacokinetic analysis for each drug taken separately was performed using the NONMEM computer program Version 6 (NM-TRAN version II). It uses mixed (fixed and random) effects regression to estimate population means and variances of the pharmacokinetic parameters and to identify factors that influence them. One-, two- and three-compartment pharmacokinetic models with first-order absorption, with and without absorption lag times, were compared. Additional one or two-compartments were used for anti-malarials presenting metabolite concentrations (AM and LF). The final parameters estimated were systemic clearance (CL/F), inter-compartmental clearance (Q/F), central volume of distribution (VC/F), peripheral volume of distribution (VP/F) and absorption rate constant (ka). Since no intravenous drug concentration data were available, these parameters represent apparent values. Where available, metabolite data were included into the model and metabolism rate constant from drug compartment to metabolite compartment (k23) and metabolite clearance (CLmet) were also estimated. Owing to identifiability problems, the volume of distribution of the metabolites (VM) DLF and DHA were assumed to equal LF and AM VC, respectively. […] The observed baseline residual plasma concentrations were fitted by estimating a factor (F0) that provided an estimation of the residual doses from previous treatment. […] Proportional and combined proportional-and-additive error models were compared to describe intra-patient (residual) variability for the mother compound, and if available for its metabolite using Cpij(1 + ε1ij) + ε2ij or Cmij(1 + ε3ij) + ε4ij, where Cpij are the corresponding predicted i^th drug plasma concentration and Cmij are the predicted metabolite concentration for the j^th individual, and ε1ij, ε2ij, ε3ij, ε4ij, are independent normally distributed residual error terms with a mean of zero and a variance of σ^2_1, σ^2_2, σ^2_3, σ^2_4. The covariate analysis was performed using a stepwise insertion/deletion approach. […]
# [2] = cited from earlier work
# [3] = Population pharmacokinetic analysis (NONMEM) of piperaquine in Cambodian malaria patients (Pramoy, DHA-PPQ); assay type: in vivo, human
# Description: The third study was performed during July to October 2008 at Pramoy Health Centre, Veal Veng district, Pursat province, Cambodia. A total of 287 suspected malaria cases were screened by microscopy, of whom 82 (29%) were infected with P. falciparum and 50 (17%) with P. vivax (no mixed infections). Children younger than six years of age and pregnant or lactating women were excluded. Three doses of DHA-PPQ (Duo-Cotecxin®, Zhejiang Holley Nanhu Pharmaceutical Co., Ltd, China) were given according to age (as per national guidelines) on three consecutive days (see Table 1). Same follow-up and blood sampling as at Phnom Dék were performed.
# Samples of 2 ml of venous blood were collected on an EDTA Vacutainer and kept on ice for no longer than 6 h after withdrawal and then aliquoted into whole blood, plasma and pellet and immediately stored in liquid nitrogen or a –80°C freezer. […] The method was validated according to FDA recommendations, including assessment of extraction yield, matrix effect variability, overall process efficiency, standard addition experiments as well as anti-malarials short- and long-term stability in plasma. […] The laboratory is part of the quality control system of the World-Wide Antimalarial Resistance Network (WWARN).
# The pharmacokinetic analysis for each drug taken separately was performed using the NONMEM computer program Version 6 (NM-TRAN version II). It uses mixed (fixed and random) effects regression to estimate population means and variances of the pharmacokinetic parameters and to identify factors that influence them.
# One-, two- and three-compartment pharmacokinetic models with first-order absorption, with and without absorption lag times, were compared. Additional one or two-compartments were used for anti-malarials presenting metabolite concentrations (AM and LF). The final parameters estimated were systemic clearance (CL/F), inter-compartmental clearance (Q/F), central volume of distribution (VC/F), peripheral volume of distribution (VP/F) and absorption rate constant (ka). Since no intravenous drug concentration data were available, these parameters represent apparent values. Where available, metabolite data were included into the model and metabolism rate constant from drug compartment to metabolite compartment (k23) and metabolite clearance (CLmet) were also estimated. Owing to identifiability problems, the volume of distribution of the metabolites (VM) DLF and DHA were assumed to equal LF and AM VC, respectively. […] The observed baseline residual plasma concentrations were fitted by estimating a factor (F0) that provided an estimation of the residual doses from previous treatment.
# Exponential errors following a log-normal distribution were assumed for the description of inter-patient variability of the pharmacokinetic parameters and were of the form: θi=θ×e^ηj where θi is the individual pharmacokinetic parameter value in the j^th individual, θ is the population parameter estimate, and ηj is the random effect value, which is independently and normally distributed with a mean of 0 and variance ω^2. Proportional and combined proportional-and-additive error models were compared to describe intra-patient (residual) variability for the mother compound, and if available for its metabolite using Cpij(1 + ϵ1ij) + ϵ2ij or Cmij(1 + ϵ3ij) + ϵ4ij, where Cpij are the corresponding predicted i^th drug plasma concentration and Cmij are the predicted metabolite concentration for the j^th individual, and ϵ1ij, ϵ2ij, ϵ3ij, ϵ4ij, are independent normally distributed residual error terms with a mean of zero and a variance of σ^2_1, σ^2_2, σ^2_3, σ^2_4.
# The covariate analysis was performed using a stepwise insertion/deletion approach. Visual inspection of the correlation between post hoc individual estimates of the pharmacokinetic parameters and the available covariates was first conducted by graphical exploration. […]
# [4] = present study, Tanzanian patients, sampling 7 days
# [5] = patients, age 7.7 ± 1.4 years, n 13, sampling 28 days
# [6] = bootstrap evaluation, 200 replicates
# [7] = non-pregnant women, median age 27.5 (18–45) years, n 24, sampling 84 days
# [8] = patients, median age 6 (2–10) years, n 236, sampling 42 days
# [9] = pregnant women, median age 25 (18–43) years, n 24, sampling 84 days
# [10] = patients, median age 22 (14–60) years, n 217
# [11] = pregnant women, median age 21 (16–35) years, n 21, sampling 10 h
# [12] = patients, median age 4.0 (1–10) years, n 50, sampling 72 h
smiles,measurement,setting,value
"CCCCNCC(O)c1cc(Cl)cc2c1-c1ccc(Cl)cc1/C2=C/c1ccc(Cl)cc1 (centres unmarked) [DLF, desbutyl-lumefantrine]","CL, population estimate for a person of 70 kg",[1]; [4],336 L/h
same,"VSS (steady-state volume of distribution), population estimate for a person of 70 kg",[1]; [4],265^f L
same,"CL, population estimate for a person of 70 kg",[2]; [5],701 L/h
"Clc1ccc2c(N3CCN(CCCN4CCN(c5ccnc6cc(Cl)ccc56)CC4)CC3)ccnc2c1 [Piperaquine, piperaquine]","F0, bootstrap mean of 200",[3]; [6],125 mg
same,"Q, bootstrap mean of 200",[3]; [6],126 L/h
same,"VP, bootstrap mean of 200",[3]; [6],"20,053 L"
same,"ka, bootstrap mean of 200",[3]; [6],1.00 h⁻¹
same,"σC, bootstrap mean of 200","[3]; bootstrap evaluation, 200 replicates, listed as head prints [μmolL^-1]",41%
same,IIV (inter-individual variability) of CL,[3]; final model,45%
same,IIV (inter-individual variability) of VC,[3]; final model,65%
same,IIV (inter-individual variability) of VP,[3]; final model,50%
same,"ka (first-order absorption rate constant), population estimate",[3]; final model,0.93 h⁻¹
same,"F0 (residual amount from the previous treatment), population estimate","[3]; final model, baseline",123 mg
same,clearance,"[3]; human, plasma, oral, present study, 60 patients, sampling 14 days",1820 mL/min
same,Vd,"[3]; human, plasma, oral, present study, 60 patients, sampling 14 days, read-out: VSS, population estimate for a person of 70 kg",42800 L
same,residual dose (F0) as percentage of an initial dose,[3]; initial dose 480–960 mg,12.8–25.6%
same,"CL, population estimate for a person of 70 kg",[2]; [7],92 L/h
same,"VSS, population estimate for a person of 70 kg",[2]; [7],"58,030 L"
same,"CL, population estimate","[2]; patients, age 3–55 years, n 98, sampling 63 days",98^h L/h
same,"VSS, population estimate","[2]; patients, age 3–55 years, n 98, sampling 63 days, for a patient with a median body weight of 48 kg","61,180^i L"
same,"CL, population estimate for a person of 70 kg",[2]; [8],29 L/h
same,"VSS, population estimate for a person of 70 kg",[2]; [8],"14,972 L"
same,"CL, population estimate for a person of 70 kg",[2]; [9],90 L/h
same,"VSS, population estimate for a person of 70 kg",[2]; [9],"37,030 L"
"C[C@H]1[C@@H](O)O[C@@H]2O[C@@]3(C)CC[C@H]4[C@H](C)CC[C@@H]1[C@@]24OO3 [DHA, dihydroartemisinin]",clearance,[1]; [4],6980 mL/min
same,Vd,[1]; [4],129 L
same,"CL, population estimate for a person of 70 kg",[2]; [10],237^a L/h
same,"CL, population estimate for a person of 70 kg",[2]; [11],564 L/h
"CO[C@H]1O[C@@H]2O[C@@]3(C)CC[C@H]4[C@H](C)CC[C@@H]([C@H]1C)[C@@]24OO3 [Artemether, artemether]","VC, bootstrap mean of 200",[1]; [6],133 L/kg
same,"k23, bootstrap mean of 200",[1]; [6],5.83 h⁻¹
same,"ka, bootstrap mean of 200",[1]; [6],0.27 h⁻¹
same,"θINH, bootstrap mean of 200",[1]; [6],−0.27
same,"σC (CV%), bootstrap mean of 200",[1]; [6],73%
same,decrease in CL in patients exposed to a CYP2C9 or CYP3A4 inhibitor,[1]; concomitant treatment,70%
same,IIV (inter-individual variability) of CL,[1]; final model,44%
same,IIV (inter-individual variability) of k23,[1]; final model,68%
same,IIV (inter-individual variability) of ka,[1]; final model,119%
same,"ka (first-order absorption rate constant), population estimate",[1]; final model,0.27 h⁻¹
same,"σC (CV%), residual error for the central compartment, population estimate","[1]; final model, intra-patient variability",74%
same,"k23 (metabolism rate constant), population estimate","[1]; final model, parent to metabolite (AM to DHA, LF to DLF)",5.86 h⁻¹
same,clearance,[1]; [4],9970 mL/min
same,Vd,[1]; [4],129 L
same,"CL, population estimate for a person of 70 kg",[2]; [5],102 L/h
same,"VSS, population estimate for a person of 70 kg",[2]; [5],1263 L
same,"CL, population estimate for a person of 70 kg",[2]; [12],182–700^b L/h
same,"VSS, population estimate for a person of 70 kg",[2]; [12],364 L
same,"CL, population estimate for a person of 70 kg",[2]; [10],252^a L/h
same,"VSS, population estimate for a person of 70 kg",[2]; [10],304^a L
same,"CL, population estimate for a person of 70 kg",[2]; [11],1054^d L/h
same,"VSS, population estimate for a person of 70 kg",[2]; [11],2602^d L
